# Laboratory results taken from ChEMBL document CHEMBL1649419, “Design and synthesis of pyrimidinone and pyrimidinedione inhibitors of dipeptidyl peptidase IV” (J Med Chem, 2011).
# Legend:
# [1] = Half life in rat liver microsomes by LC/MS analysis; type: ADME, Microsome
# [2] = Half life in human liver microsomes by LC/MS analysis; type: ADME, Microsome
# [3] = Oral bioavailability in monkey at 2.1 mg/kg; type: ADME, organism-based, Macaca mulatta; conditions: rhesus monkey, in vivo
# [4] = AUC in monkey at 2.1 mg/kg, po; type: ADME, organism-based, Macaca mulatta; design: dose 2.1 mg/kg, route oral; conditions: rhesus monkey, plasma
# [5] = Volume of distribution at steady state in monkey at 1.6 mg/kg, iv and 2.1 mg/kg, po; type: ADME, organism-based, Macaca mulatta; conditions: rhesus monkey, in vivo, read-out: Vdss
# [6] = Half life in monkey at 1.6 mg/kg, iv; type: ADME, organism-based, Macaca mulatta; design: dose 1.6 mg/kg, route intravenous; conditions: rhesus monkey, in vivo
# [7] = Half life in monkey at 2.1 mg/kg, po; type: ADME, organism-based, Macaca mulatta; design: dose 2.1 mg/kg, route oral; conditions: rhesus monkey, in vivo
# [8] = Half life in dog at 0.52 mg/kg, iv; type: ADME, organism-based, Canis lupus familiaris; design: dose 0.52 mg/kg, route intravenous; conditions: in vivo
# [9] = AUC in rat at 14 mg/kg, po; type: ADME, organism-based; design: dose 14 mg/kg, route oral; conditions: plasma
# [10] = AUC in dog at 1.8 mg/kg, po; type: ADME, organism-based, Canis lupus familiaris; design: dose 1.8 mg/kg, route oral; conditions: plasma
# [11] = Half life in rat at 1.4 mg/kg, iv; type: ADME, organism-based; design: dose 1.4 mg/kg, route intravenous; conditions: in vivo
# [12] = Half life in rat at 14 mg/kg, po; type: ADME, organism-based; design: dose 14 mg/kg, route oral; conditions: in vivo
# [13] = Volume of distribution at steady state in rat at 1.4 mg/kg, iv and 14 mg/kg, po; type: ADME, organism-based; conditions: in vivo, read-out: Vdss
# [14] = Oral bioavailability in rat at 14 mg/kg; type: ADME, organism-based; conditions: in vivo
# [15] = Half life in dog at 1.8 mg/kg, po; type: ADME, organism-based, Canis lupus familiaris; design: dose 1.8 mg/kg, route oral; conditions: in vivo
# [16] = Oral bioavailability in dog at 1.8 mg/kg; type: ADME, organism-based, Canis lupus familiaris; conditions: in vivo
# [17] = Volume of distribution at steady state in dog at 0.52 mg/kg, iv and 1.8 mg/kg, po; type: ADME, organism-based, Canis lupus familiaris; conditions: in vivo, read-out: Vdss
# [18] = Half life in dog at 2.7 mg/kg, po; type: ADME, organism-based, Canis lupus familiaris; design: dose 2.7 mg/kg, route oral; conditions: in vivo
# [19] = AUC in dog at 2.7 mg/kg, po; type: ADME, organism-based, Canis lupus familiaris; design: dose 2.7 mg/kg, route oral; conditions: plasma
# [20] = Half life in dog at 0.90 mg/kg, iv; type: ADME, organism-based, Canis lupus familiaris; design: dose 0.9 mg/kg, route intravenous; conditions: in vivo, 0.9 mg/kg
# [21] = Oral bioavailability in dog at 2.7 mg/kg, po; type: ADME, organism-based, Canis lupus familiaris; conditions: in vivo
# Macaca fascicularis = test: Half life in monkey at 0.93 mg/kg, iv; conditions: cynomolgus monkey, in vivo
# [22] = Volume of distribution at steady state in dog at 0.90 mg/kg, iv and 2.7 mg/kg, po; type: ADME, organism-based, Canis lupus familiaris; conditions: in vivo, 0.9 mg/kg, read-out: Vdss
# [23] = Clearance in dog at 0.90 mg/kg, iv and 2.7 mg/kg, po; type: ADME, organism-based, Canis lupus familiaris; conditions: in vivo, 0.9 mg/kg
Compound,half-life [1] [h],half-life [2] [h],further results
Cn1c(=O)cc(N2CCC[C@@H](N)C2)n(Cc2ccc(F)cc2Cl)c1=O,1.12,> 3.33,
N#Cc1ccccc1Cn1c(N2CCC[C@@H](N)C2)ncc(F)c1=O.O=C(O)C(O)C(O)C(=O)O [TARTARATE],,,bioavailability [3]: 110%; AUC [4]: 3100 ng·h/mL; Vd [5]: 3.2 L/kg; half-life [6]: 4 h; half-life [7]: 5.7 h
N#Cc1ccccc1Cn1c(N2CCC[C@@H](N)C2)nccc1=O.O=C(O)C(F)(F)F,,,half-life [8]: 2.4 h; AUC [9]: 1200 ng·h/mL; AUC [10]: 1400 ng·h/mL; half-life [11]: 0.74 h; half-life [12]: 1 h; Vd [13]: 4.8 L/kg; bioavailability [14]: 54%; half-life [15]: 2.8 h; bioavailability [16]: 78%; Vd [17]: 3 L/kg
N[C@@H]1CCCN(c2cc(=O)[nH]c(=O)n2Cc2ccccc2Br)C1,> 1.97,> 3.33,
N#Cc1ccccc1Cn1c(N2CCC[C@@H](N)C2)ncc(/C=C/c2cccnc2)c1=O,0.45,> 3.33,
Cn1c(=O)cc(N2CCC[C@@H](N)C2)n(Cc2cc(F)ccc2Br)c1=O,0.267,1.5,
Cn1c(=O)cc(N2CCC[C@@H](N)C2)n(Cc2cc(F)ccc2Cl)c1=O,0.883,> 3.33,
N#Cc1ccsc1Cn1c(N2CCC[C@@H](N)C2)ncc(Br)c1=O,0.25,> 3.33,
Cn1c(=O)cc(N2CCC[C@@H](N)C2)n(Cc2ccccc2Br)c1=O,1.37,> 3.33,
N#Cc1ccc(F)cc1Cn1c(N2CCC[C@@H](N)C2)ncc(Cl)c1=O,2.03,> 3.33,
Cn1c(=O)cc(N2CCC[C@@H](N)C2)n(Cc2cc(F)ccc2C#N)c1=O.O=C(O)C(F)(F)F,,,half-life [18]: 4.8 h; AUC [19]: 2200 ng·h/mL; half-life [20]: 1.5 h; bioavailability [21]: 90%; half-life (Macaca fascicularis): 5.6 h; Vd [22]: 4.4 L/kg; clearance [23]: 18 mL/min/kg
Cn1c(=O)cc(N2CCC[C@@H](N)C2)n(Cc2cc(Cl)ccc2Cl)c1=O,0.167,2.75,

# The next lines start with results.
half-life [1] [h],half-life [2] [h],Compound,further results
0.117,> 3.33,CCc1cnc(N2CCC[C@@H](N)C2)n(Cc2ccccc2C#N)c1=O,
> 3.33,> 3.33,N#Cc1ccccc1Cn1c(N2CCC[C@@H](N)C2)ncc(C#CCO)c1=O,
0.1,1.38,N#Cc1ccccc1Cn1c(N2CCC[C@@H](N)C2)nc2c(c1=O)CCCC2,
0.0167,1.17,N#Cc1ccccc1Cn1c(N2CCC[C@@H](N)C2)ncc(-c2ccccc2)c1=O,
0.683,> 3.33,N#Cc1ccc(F)cc1Cn1c(N2CCC[C@@H](N)C2)ncc(Br)c1=O,
0.2,1.98,N#Cc1ccccc1Cn1c(N2CCC[C@@H](N)C2)nc(-c2ccccc2)cc1=O,
3.32,> 3.33,N#Cc1ccccc1Cn1c(N2CCC[C@@H](N)C2)ncc(Cl)c1=O,
0.383,> 3.33,Cc1nc(N2CCC[C@@H](N)C2)n(Cc2ccccc2C#N)c(=O)c1Br,
> 3.33,> 3.33,N#Cc1ccccc1Cn1c(N2CCC[C@@H](N)C2)ncc(F)c1=O,
> 3.33,> 3.33,CC#Cc1cnc(N2CCC[C@@H](N)C2)n(Cc2ccccc2C#N)c1=O,
